The values that follow come from patent US6506793B2, “Citral acetal” (Kao Corporation, priority 2000, dated 2003).

Each structure is given as a SMILES string.

The assay relates to smell (isovaleric acid) of the socks. The assay is described as follows: Organoleptic evaluation of smell of socks after application onto a bare foot. Type of assay: in vivo, human. The arrangement: key: 5: Strong; 4: Slightly strong; 3: Moderate; 2: Slightly weak; 1: Weak; 0: Does not smell. Particulars: 2 g of 0.1% solution in ethanol on a bare foot; smell (isovaleric acid) of socks after 8 hours. The text has this: The present compounds 1 to 3 obtained in Examples 1 to 3, as well as commercial citral propylene glycol acetal (CITRAL PGA produced by Inoue Koryo Co., Ltd.) and citral hexylene glycol acetal (CITRAL HGA produced by Inoue Koryo Co., Ltd.) as comparative compounds, were used to prepare 0.1% solutions in ethanol respectively, and 2 g solution was applied onto a bare foot. 2 g ethanol (containing no test sample) was applied onto the other bare foot (blank), then socks were put on the feet respectively, and the extent of smell (isovaleric acid) of the socks after 8 hours was subjected to organoleptic evaluation by one skilled examiner in the following 6-level criteria.
Take `CCCCCOCC1COC(C=C(C)CCC=C(C)C)O1` (centres unmarked) [Present Compound 1, citral pentyl glyceryl ether acetal]: the “Strength of Smell” value was 2. Then `CCCCCCCCOCC1COC(C=C(C)CCC=C(C)C)O1` (centres unmarked) [Present Compound 2, citral n-octyl glyceryl ether acetal], with 2. Under `CC(C)=CCCC(C)=CC1OC(C)CC(C)(C)O1` (centres unmarked) [CITRAL HGA, citral hexylene glycol acetal, reference compound] stands 5. As for `CC(C)=CCC/C(C)=C/C1OCC(C)O1` (centres unmarked) [CITRAL PGA, citral propylene glycol acetal, reference compound], the “Strength of Smell” value was found to be 5. `CCCCC(CC)COCC1COC(C=C(C)CCC=C(C)C)O1` (centres unmarked) [Present Compound 3, citral 2-ethyl hexyl glyceryl ether acetal]: the “Strength of Smell” value came to 1.
